Common to all, as to format: cell-based
One data set relates to EGFR. Nature of the data set: Western blot of EGFR phosphorylation, PC9 cells. Particulars: PC9, 10 μM NGI-1, 1 day. The protocol: FIGS. 4A-4H illustrate the finding that NGI-1 blocks RTK driven proliferation. FIG. 4A illustrates western blot analysis of EGFR phosphorylation (Y1173) and gel mobility in PC9 (EGFR-mutant) and A549 (k-ras mutant) NSCLC cells after 10 μM NGI-1 treatment for 24 h. […] Actin expression was used as a control for protein loading. FIG. 4B illustrates MTT assays results of PC9 following treatment with 10 μM NGI-1 or 1 μM tunicamycin for a total of 5 d. Relative proliferation id reported in fold increase from day 0. FIG. 4C illustrates MTT assays results of A549 following treatment with 10 μM NGI-1 or 1 μM tunicamycin for a total of 5 d. Relative proliferation id reported in fold increase from day 0. FIG. 4D illustrates protein phosphorylation profiles of PC9 cells analyzed by phospho-protein array to assess the response of PC9 to 10 μM NGI-1 for 24 h. FIG. 4E illustrates protein phosphorylation profiles of A549 cells analyzed by phospho-protein array to assess the response of A549 to 10 μM NGI-1 for 24 h. FIG. 4F illustrates western blot analysis of FGFR phosphorylation (Y653/654) and gel mobility for H1581 (TKI sensitive) and H2444 (TKI insensitive) NSCLC cell lines. […] FIG. 4G illustrates MTT assays for H1581 cells treated with 10 μM NGI-1 for 5 d. Asterisk (***) indicates a significant difference p<0.001 for MTT. FIG. 4H illustrates MTT assays for H2444 cells treated with 10 μM NGI-1 for 5 d. […]
Background: Immunoblotting shows a protein as a band on a membrane.

The next data set deals with HCC827 cells. Nature of the data set: MTT proliferation assay, HCC827. The following applies: HCC827, 10 μM NGI-1, 5 d, p<0.05. The protocol:
FIGS. 7A-7D illustrate EGFR kinase domain mutant cell lines growth inhibition and cell cycle arrest response to NGI-1. FIG. 7A illustrates MTT assays to determine the effects of NGI-1 on growth of H3255 cells. FIG. 7B illustrates MIT assays to determine the effects of NGI-1 on growth of HCC827 cells. EGFR kinase domain mutant cell lines H3255 and HCC827 cells were untreated or treated with 10 μM NGI-1 for 5 d. […] FIG. 7C illustrates cell cycle distribution of H3255 after 24 h NGI-1 treatment for 24 h determined by flow cytometry. FIG. 7D illustrates cell cycle distribution of HCC827 after 24 h NGI-1 treatment for 24 h determined by flow cytometry.
Growth rates were determined by CellTiter 96 NonRadioactive Cell Proliferation Assay (Promega; Madison, Wis. USA) according to the manufacturer's directions. Briefly, NSCLC cells (2×10^3) untreated or treated with […] NGI-1 or 1 μM Tn, were seeded in triplicates in 96-wells plates and grown in culture medium containing […]. Cell numbers were estimated after 0, 3, and 5 days by adding MTT [(3-(4,5-Dimethylthiazol-2-yl)-2,5-diphenyltetrazolium bromide] reagent to the wells 4 hours before taking the spectrophotometric reading (absorbance at 570 nm).
Background: Tetrazolium dyes change colour on reduction, which living cells bring about.

Data set [1] is described as follows: Celltiter Glo viability assay, HepG2. Particulars: human, HepG2 cells; HEPG2, 72 h of compound exposure; read-out: Cytotoxicity Assay Mean EC50. The source says: (§1) The HTS approach using the bioluminescent N-linked glycosylation reporter (CCR 2011) in D54-ERLucT and D54-LucT cells has been previously described (Bennett, et al., Transl Oncol 2013, 6, 382-391). Briefly, the primary cell-based screen detects site occupancy of NLG sequons using a modified luciferase protein translated into the ER. […] The methodology for the primary (D54-ERlucT), secondary (D54-LucT), and tertiary (luciferase inhibition) screens as well and toxicity assays with CelltitreGlo are deposited in Pubchem (AID 588693).
(§2) To better understand the connection between structure and activity, analogs were prepared and tested in the D54-ERLucT cell based assay for inhibition of N-linked glycosylation (FIG. 1B). The assay was used to estimate and compare AC40 values among analogs and to guide the design of improved compounds that inhibited N-linked glycosylation. This effort generated 36 unique compounds with modifications to the amine component of the sulfonamide functionality (red), the pyrrolidine moiety (blue) or the methylaminothiazole group (green). Generally, incorporation of larger sulfonamides (i.e., larger secondary amines appended to the sulphone) was not well tolerated, resulting in erosion of potency (7 analogs). However, steric interactions could be mitigated by the introduction of a hydrogen bond accepting oxygen in a larger cyclic amine. Thus, morpholine was determined to be an acceptable surrogate for the dimethylamine component of the sulfonamide (FIGS. 1A-1D). The pyrrolidine group (blue) was replaced with various alkyl, cycloalkyl, and amine groups (7 compounds). The aminothiazole moiety was derivatized most extensively of all three regions (green highlighted area, 22 analogs). […] Analogs with the highest potency in the luciferase assay were retested with western blot analysis to insure that measurements of luciferase activation corresponded to loss of N-linked glycosylation.

Another data set relates to HepG2 cells. Nature of the data set: Celltiter Glo viability assay, HepG2. The following applies: HEPG2 EC50 over NLG AC40.
Text: as §1, §2
Background: In ATP-based viability assays light output follows the ATP content of the culture.

Where only a bound is given, the exact number is not on record here.

For the compound `Cc1cnc(NC(=O)c2cc(S(=O)(=O)N(C)C)ccc2N2CCCC2)s1` [NGI-1, 5-(N,N-Dimethylsulfamoyl)-N-(5-methylthiazol-2-yl)-2-(pyrrolidin-1-yl)benzamide], the EGFR phosphorylation entry in the data set on EGFR is “blocked phosphorylation of KD mutant EGFR”. In addition, the “reduction of proliferation, MTT” value in the data set on HCC827 cells is reported as more than 45%. Moreover, the concentration giving a half-maximal response (EC50) – broadly, the concentration that produces a half-maximal response – at 72 h in data set [1] is more than 30 µM. Further, the “Selectivity (EC50/AC40)” value in the data set on HepG2 cells is given as more than 172.

The record behind these values is patent US11219625B2, “Inhibitors of N-linked glycosylation and methods using same” (YALE UNIVERSITY, priority 2015, dated 2022).
